Earlier results in patent EP1223952B1, “METHODS FOR TREATMENT OF SOLID TUMORS AND METASTASIS BY GENE THERAPY” (Aguilar-Cordova, Carlos, Estuardo, priority 1999, dated 2001).

What was measured:
[1] = in combination with an LHRH agonist
[2] = oral, at all doses
[3] = in vivo

CC(C)C(=O)Nc1ccc([N+](=O)[O-])c(C(F)(F)F)c1 [Eulexin, flutamide]
diarrhea [1]: 12%
gynecomastia [1]: 9%
hot flashes [1]: 61%
impotence [1]: 33%
loss of libido [1]: 36%
nausea/vomiting [1]: 11%
other [1]: 7%
other GI [1]: 6%

CC(C)[C@H](N)C(=O)OCCOCn1cnc2c(=O)[nH]c(N)nc21 [valacyclovir, Valacyclovir]
Peak plasma valacyclovir concentrations [2]: less than 0.5 mcg/ml
arthralgia (in vivo): 1-6%
depression (in vivo): 1-7%
dizziness or abdominal pain (in vivo): 2-11%
headache (in vivo): 14-35%
nausea (in vivo): 6-15 % of patients
vomiting (in vivo): 1-6%
abnormal liver function tests (laboratory abnormalities): 1-4 % of patients
anemia, leukopenia, thrombocytopenia and elevated serum creatinine (laboratory abnormalities): ≤ 1 % of patients

leuprolide acetate [Lupron Depot]
Elevation of LDH (> 2 x normal) [3]: 19.6%
